# According to US11465986B2, “Crystal form of c-MET inhibitor and salt form thereof and preparation method therefor” (FUJIAN AKEYLINK BIOTECHNOLOGY CO., LTD., priority 2018, dated 2022):
# Test: Stability test of the crystal forms (HPLC impurity content)
# Format: physicochemical
# Conditions: for Stability, conclusion in words: stress conditions (high temperature, high humidity, light)
# Method: The method for High Performance Liquid Chromatograph (HPLC) in the present disclosure
# Instrument Model: Agilent 1200 High Performance Liquid Chromatograph
# The analysis method is as follows: […]
# About 10 mg of the crystal form B of the compound represented by formula (II) was weighted and placed under stability test conditions, and the samples were collected and analyzed after 5 days, 10 days, and 1 month.
# About 10 mg of the crystal form C of the compound represented by formula (III) was weighted and placed under stability test conditions, and the samples were collected and analyzed after 5 days, 10 days, and 1 month respectively.
# [1] = form C, Light (total illuminance = 1.2 × 106 Lux · hr/near ultraviolet = 200 w · hr/m^2)
# [2] = form B, 40° C. relative humidity 75%, 1 month
# [3] = form B, 40° C. relative humidity 75%, 10 days
# [4] = form B, 60° C. relative humidity 75%, 1 month
# [5] = form B, 60° C. relative humidity 75%, 10 days
# [6] = form B, Light (total illuminance = 1.2 × 106 Lux · hr/near ultraviolet = 200 w · hr/m^2)
# [7] = form B, Relative humidity 92.5%, 1 month
# [8] = form B, Relative humidity 92.5%, 5 days
# [9] = form B, Relative humidity 92.5%, 10 days
smiles,measurement,setting,value
C[C@H](c1cccc(-c2ncc(OCC3CCN(C)CC3)cn2)c1)n1cc(-c2cc(C#N)ccn2)cc(F)c1=O [crystal form C of the compound represented by formula (III)],Total impurities,"form C, 0 day",2.22%
same,Total impurities,"form C, 40° C. Relative humidity 75%, 1 month",2.31%
same,Total impurities,"form C, 40° C. Relative humidity 75%, 10 days",2.26%
same,Total impurities,"form C, 60° C. Relative humidity 75%, 1 month",12.75%
same,Total impurities,"form C, 60° C. Relative humidity 75%, 10 days",6.04%
same,Total impurities,"form C, 60° C., 1 month",2.35%
same,Total impurities,"form C, 60° C., 5 days",2.27%
same,Total impurities,"form C, 60° C., 10 days",2.35%
same,"Impurity content, relative retention time 0.45 (column inferred)",[1],0.05%
same,"Impurity content, relative retention time 0.7 (column inferred)",[1],0.12%
same,"Impurity content, relative retention time 0.75 (column inferred)",[1],0.05%
same,"Impurity content, relative retention time 0.87 or 0.94 (column inferred)",[1],0.24%
same,Total impurities,[1],2.94%
same,Total impurities,"form C, Relative humidity 92.5%, 1 month",2.28%
same,Total impurities,"form C, Relative humidity 92.5%, 5 days",2.29%
same,Total impurities,"form C, Relative humidity 92.5%, 10 days",2.22%
same,"Stability, conclusion in words",,relatively stable under high temperature and high humidity conditions
C[C@H](c1cccc(-c2ncc(OCC3CCN(C)CC3)cn2)c1)n1cc(-c2cc(C#N)ccn2)cc(F)c1=O.Cl,"Impurity content, relative retention time 0.77","form B, 0 day",0.05%
same,"Impurity content, relative retention time 1.04","form B, 0 day",2.18%
same,Total impurities,"form B, 0 day",2.24%
same,"Impurity content, relative retention time 0.77",[2],0.23%
same,"Impurity content, relative retention time 1.04",[2],1.95%
same,Total impurities,[2],2.18%
same,"Impurity content, relative retention time 0.77",[3],0.18%
same,"Impurity content, relative retention time 1.04",[3],2.02%
same,Total impurities,[3],2.2%
same,"Impurity content, relative retention time 0.77",[4],0.36%
same,"Impurity content, relative retention time 1.04",[4],1.76%
same,Total impurities,[4],2.12%
same,"Impurity content, relative retention time 0.77",[5],0.42%
same,"Impurity content, relative retention time 1.04",[5],1.72%
same,Total impurities,[5],2.13%
same,"Impurity content, relative retention time 0.77","form B, 60° C., 1 month",0.05%
same,"Impurity content, relative retention time 1.04","form B, 60° C., 1 month",2.27%
same,"Impurity content, relative retention time 1.4","form B, 60° C., 1 month",0.28%
same,"Impurity content, relative retention time 1.41","form B, 60° C., 1 month",0.07%
same,"Impurity content, relative retention time 1.43","form B, 60° C., 1 month",0.06%
same,"Impurity content, relative retention time 1.49","form B, 60° C., 1 month",0.05%
same,Total impurities,"form B, 60° C., 1 month",2.78%
same,"Impurity content, relative retention time 0.77","form B, 60° C., 5 days",0.06%
same,"Impurity content, relative retention time 1.04","form B, 60° C., 5 days",2.18%
same,"Impurity content, relative retention time 1.4","form B, 60° C., 5 days",0.06%
same,Total impurities,"form B, 60° C., 5 days",2.3%
same,"Impurity content, relative retention time 1.04","form B, 60° C., 10 days",2.16%
same,"Impurity content, relative retention time 1.4","form B, 60° C., 10 days",0.12%
same,Total impurities,"form B, 60° C., 10 days",2.29%
same,"Impurity content, relative retention time not resolvable (one of 1.4 to 1.49)",[6],0.17%
same,Total impurities,[6],2.39%
same,"Impurity content, relative retention time 0.77",[7],0.2%
same,"Impurity content, relative retention time 1.04",[7],2.03%
same,Total impurities,[7],2.23%
same,"Impurity content, relative retention time 0.77",[8],0.13%
same,"Impurity content, relative retention time 1.04",[8],2.08%
same,Total impurities,[8],2.21%
same,"Impurity content, relative retention time 0.77",[9],0.16%
same,"Impurity content, relative retention time 1.04",[9],2.04%
same,Total impurities,[9],2.2%
same,"Stability, conclusion in words",,stable under high temperature and light conditions
